Our source for the mutagenic call values is PubChem BioAssay AID1259407 (Chemical Carcinogenesis Research Information System (CCRIS), 2018).

The test system of the data set is CCRIS mutagenicity, Ames/micronucleus/aberration tests. In words: CCRIS mutagenicity studies.
The mark [1] stands for this setting: Test System: AMES SALMONELLA TYPHIMURIUM, Strain/Indicator: TA98, Metabolic Activation: NONE, Method: PREINCUBATION
The mark [2] stands for this setting: Test System: AMES SALMONELLA TYPHIMURIUM, Strain/Indicator: TA100, Metabolic Activation: NONE, Method: PREINCUBATION

Molecules are shown by their SMILES. Active and inactive are the calls of the source. No rule for the calls is given here.

`C[N+](C)(CF)CCO`: the mutagenic call is “inactive; negative” (Test System: Mouse lymphoma, Strain/Indicator: L5178Y (tk+/tk-), Metabolic Activation: None, Method: Suspension/plate) and “inactive; negative” (Test System: Mouse lymphoma, Strain/Indicator: L5178Y (tk+/tk-), Metabolic Activation: Rat, Liver, S-9, Aroclor 1254, Method: Suspension/plate).

In the case of `Clc1cccc(-c2ccc(Cl)c(Cl)c2Cl)c1Cl`, the mutagenic call (Test System: AMES SALMONELLA TYPHIMURIUM, Strain/Indicator: TA97, Metabolic Activation: HAMSTER, LIVER, S-9, AROCLOR 1254 (10 OR 30%), Method: PREINCUBATION) was “inactive; negative”; the mutagenic call (Test System: AMES SALMONELLA TYPHIMURIUM, Strain/Indicator: TA97, Metabolic Activation: NONE, Method: PREINCUBATION) is “inactive; negative”; the mutagenic call (Test System: AMES SALMONELLA TYPHIMURIUM, Strain/Indicator: TA97, Metabolic Activation: RAT, LIVER, S-9, AROCLOR 1254 (10 OR 30%), Method: PREINCUBATION) was “inactive; negative”; the mutagenic call (Test System: AMES SALMONELLA TYPHIMURIUM, Strain/Indicator: TA98, Metabolic Activation: HAMSTER, LIVER, S-9, AROCLOR 1254 (10 OR 30%), Method: PREINCUBATION) is “inactive; negative”; the mutagenic call under setting [1] was “inactive; negative”; the mutagenic call (Test System: AMES SALMONELLA TYPHIMURIUM, Strain/Indicator: TA98, Metabolic Activation: RAT, LIVER, S-9, AROCLOR 1254 (10 OR 30%), Method: PREINCUBATION) is “inactive; negative”. In addition, the mutagenic call (Test System: AMES SALMONELLA TYPHIMURIUM, Strain/Indicator: TA100, Metabolic Activation: HAMSTER, LIVER, S-9, AROCLOR 1254 (10 OR 30%), Method: PREINCUBATION) was “inactive; negative”; the mutagenic call under setting [2] is “inactive; negative”; the mutagenic call (Test System: AMES SALMONELLA TYPHIMURIUM, Strain/Indicator: TA100, Metabolic Activation: RAT, LIVER, S-9, AROCLOR 1254 (10 OR 30%), Method: PREINCUBATION) was “inactive; negative”; the mutagenic call (Test System: AMES SALMONELLA TYPHIMURIUM, Strain/Indicator: TA1535, Metabolic Activation: HAMSTER, LIVER, S-9, AROCLOR 1254 (10 OR 30%), Method: PREINCUBATION) was “inactive; negative”; the mutagenic call (Test System: AMES SALMONELLA TYPHIMURIUM, Strain/Indicator: TA1535, Metabolic Activation: NONE, Method: PREINCUBATION) was “inactive; negative”; the mutagenic call (Test System: AMES SALMONELLA TYPHIMURIUM, Strain/Indicator: TA1535, Metabolic Activation: RAT, LIVER, S-9, AROCLOR 1254 (10 OR 30%), Method: PREINCUBATION) is “inactive; negative”. Besides, the mutagenic call was “inactive; negative” (Test System: AMES SALMONELLA TYPHIMURIUM, Strain/Indicator: TA1537, Metabolic Activation: HAMSTER, LIVER, S-9, AROCLOR 1254 (10 OR 30%), Method: PREINCUBATION); “inactive; negative” (Test System: AMES SALMONELLA TYPHIMURIUM, Strain/Indicator: TA1537, Metabolic Activation: NONE, Method: PREINCUBATION); “inactive; negative” (Test System: AMES SALMONELLA TYPHIMURIUM, Strain/Indicator: TA1537, Metabolic Activation: RAT, LIVER, S-9, AROCLOR 1254 (10 OR 30%), Method: PREINCUBATION); “inactive; negative” (Test System: E. COLI, Strain/Indicator: WP2 UVRA, Metabolic Activation: HAMSTER, LIVER, S-9, AROCLOR 1254, Method: STANDARD PLATE); “inactive; negative” (Test System: E. COLI, Strain/Indicator: WP2 UVRA, Metabolic Activation: HAMSTER, LIVER, S-9, Method: STANDARD PLATE); “inactive; negative” (Test System: E. COLI, Strain/Indicator: WP2 UVRA, Metabolic Activation: MOUSE, LIVER, S-9, AROCLOR 1254, Method: STANDARD PLATE). Besides, the mutagenic call is, setting by setting: (Test System: E. COLI, Strain/Indicator: WP2 UVRA, Metabolic Activation: MOUSE, LIVER, S-9, Method: STANDARD PLATE) “inactive; negative”; (Test System: E. COLI, Strain/Indicator: WP2 UVRA, Metabolic Activation: NONE, Method: STANDARD PLATE) “inactive; negative”; (Test System: E. COLI, Strain/Indicator: WP2 UVRA, Metabolic Activation: RAT, LIVER, S-9, AROCLOR 1254, Method: STANDARD PLATE) “inactive; negative”; (Test System: E. COLI, Strain/Indicator: WP2 UVRA, Metabolic Activation: RAT, LIVER, S-9, Method: STANDARD PLATE) “inactive; negative”.

For `COc1ccc(OC)c(N=Nc2c(O)ccc3ccccc23)c1`, the mutagenic call was “active; positive” (Test System: AMES SALMONELLA TYPHIMURIUM, Strain/Indicator: TA98, Metabolic Activation: HAMSTER, LIVER, S-9, AROCLOR 1254 (30%), Method: PREINCUBATION); “inactive; negative” under setting [1]; “active; positive” (Test System: AMES SALMONELLA TYPHIMURIUM, Strain/Indicator: TA100, Metabolic Activation: HAMSTER, LIVER, S-9, AROCLOR 1254 (30%), Method: PREINCUBATION); “inactive; negative” under setting [2]; “active; positive” (Test System: AMES SALMONELLA TYPHIMURIUM, Strain/Indicator: TA100, Metabolic Activation: RAT, LIVER, S-9, AROCLOR 1254 (30%), Method: PREINCUBATION).

For `Nc1ncnc2c1ncn2Cc1ccc([N+](=O)[O-])cc1`, the mutagenic call is “inactive; negative” (Test System: AMES SALMONELLA TYPHIMURIUM, Strain/Indicator: TA98(1,8-DNP), Metabolic Activation: NONE, Method: PREINCUBATION); “inactive; negative” (Test System: AMES SALMONELLA TYPHIMURIUM, Strain/Indicator: TA98(1,8-DNP), Metabolic Activation: RAT, LIVER, S-9, PCB, Method: PREINCUBATION); “inactive; negative” (Test System: AMES SALMONELLA TYPHIMURIUM, Strain/Indicator: TA98(NR), Metabolic Activation: NONE, Method: PREINCUBATION); “inactive; negative” (Test System: AMES SALMONELLA TYPHIMURIUM, Strain/Indicator: TA98(NR), Metabolic Activation: RAT, LIVER, S-9, PCB, Method: PREINCUBATION); “inactive; negative” under setting [1]; “inactive; negative” (Test System: AMES SALMONELLA TYPHIMURIUM, Strain/Indicator: TA98, Metabolic Activation: RAT, LIVER, S-9, PCB, Method: PREINCUBATION). Moreover, the mutagenic call is, setting by setting: (Test System: AMES SALMONELLA TYPHIMURIUM, Strain/Indicator: TA100(1,8-DNP), Metabolic Activation: NONE, Method: PREINCUBATION) “inactive; negative”; (Test System: AMES SALMONELLA TYPHIMURIUM, Strain/Indicator: TA100(1,8-DNP), Metabolic Activation: RAT, LIVER, S-9, PCB, Method: PREINCUBATION) “inactive; negative”; (Test System: AMES SALMONELLA TYPHIMURIUM, Strain/Indicator: TA100(NR), Metabolic Activation: NONE, Method: PREINCUBATION) “inactive; negative”; (Test System: AMES SALMONELLA TYPHIMURIUM, Strain/Indicator: TA100(NR), Metabolic Activation: RAT, LIVER, S-9, PCB, Method: PREINCUBATION) “inactive; negative”; under setting [2], “inactive; negative”; (Test System: AMES SALMONELLA TYPHIMURIUM, Strain/Indicator: TA100, Metabolic Activation: RAT, LIVER, S-9, PCB, Method: PREINCUBATION) “inactive; negative”. The mutagenic call reads like this: (Test System: AMES SALMONELLA TYPHIMURIUM, Strain/Indicator: YG1020, Metabolic Activation: NONE, Method: PREINCUBATION) “inactive; negative”; (Test System: AMES SALMONELLA TYPHIMURIUM, Strain/Indicator: YG1020, Metabolic Activation: RAT, LIVER, S-9, PCB, Method: PREINCUBATION) “inactive; negative”; (Test System: AMES SALMONELLA TYPHIMURIUM, Strain/Indicator: YG1021, Metabolic Activation: NONE, Method: PREINCUBATION) “active; positive”; (Test System: AMES SALMONELLA TYPHIMURIUM, Strain/Indicator: YG1024, Metabolic Activation: NONE, Method: PREINCUBATION) “inactive; negative”; (Test System: AMES SALMONELLA TYPHIMURIUM, Strain/Indicator: YG1024, Metabolic Activation: RAT, LIVER, S-9, PCB, Method: PREINCUBATION) “inactive; negative”; (Test System: AMES SALMONELLA TYPHIMURIUM, Strain/Indicator: YG1025, Metabolic Activation: NONE, Method: PREINCUBATION) “inactive; negative”. Also, the mutagenic call runs as follows: (Test System: AMES SALMONELLA TYPHIMURIUM, Strain/Indicator: YG1025, Metabolic Activation: RAT, LIVER, S-9, PCB, Method: PREINCUBATION) “inactive; negative”; (Test System: AMES SALMONELLA TYPHIMURIUM, Strain/Indicator: YG1026, Metabolic Activation: NONE, Method: PREINCUBATION) “inactive; negative”; (Test System: AMES SALMONELLA TYPHIMURIUM, Strain/Indicator: YG1026, Metabolic Activation: RAT, LIVER, S-9, PCB, Method: PREINCUBATION) “inactive; negative”; (Test System: AMES SALMONELLA TYPHIMURIUM, Strain/Indicator: YG1029, Metabolic Activation: NONE, Method: PREINCUBATION) “inactive; negative”; (Test System: AMES SALMONELLA TYPHIMURIUM, Strain/Indicator: YG1029, Metabolic Activation: RAT, LIVER, S-9, PCB, Method: PREINCUBATION) “inactive; negative”.
